Assay results from PubChem BioAssay AID256 (DTP/NCI, 2004).
“And” between values parts separate entries of the source, which are not always exact repeats. Equal entries are not always repeated. Toxic doses and inconclusive results are not listed.

Test system: CD2F1 mice, L1210 leukemia ip, survival T/C
Assay: NCI In Vivo Anticancer Drug Screen. Data for tumor model L1210 Leukemia (intraperitoneal) in CD2F1 (CDF1) mice
Details: higher = longer survival
Description: The antitumor activity of compounds was measured in mice bearing transplantable tumors. Survival or tumor size were measured and the results are expressed as the measurement made in the treated group (T) divided by the measurement made in the vehicle treated control group (C). The tumor model used in this assay is L1210 Leukemia (intraperitoneal) in CD2F1 (CDF1) mice

[1] = endpoint: mean survival time, dose: 100.0 mg/kg/injection, schedule: Q04DX003 (ip), vehicle: saline with Tween-80
[2] = endpoint: mean survival time, dose: 200.0 mg/kg/injection, schedule: Q04DX003 (ip), vehicle: saline with Tween-80
[3] = endpoint: mean survival time, dose: 400.0 mg/kg/injection, schedule: Q04DX003 (ip), vehicle: saline with Tween-80
[4] = endpoint: mean survival time, dose: 12.5 mg/kg/injection, schedule: Q01DX009 (ip), vehicle: Klucel (hydroxypropylcellulose) (HPC)
[5] = endpoint: mean survival time, dose: 25.0 mg/kg/injection, schedule: Q01DX009 (ip), vehicle: Klucel (hydroxypropylcellulose) (HPC)
[6] = endpoint: mean survival time, dose: 50.0 mg/kg/injection, schedule: Q01DX009 (ip), vehicle: Klucel (hydroxypropylcellulose) (HPC)
[7] = endpoint: mean survival time, dose: 100.0 mg/kg/injection, schedule: Q01DX009 (ip), vehicle: Klucel (hydroxypropylcellulose) (HPC)
[8] = endpoint: mean survival time, dose: 25.0 mg/kg/injection, schedule: Q04DX003 (ip), vehicle: saline
[9] = endpoint: mean survival time, dose: 12.5 mg/kg/injection, schedule: Q04DX002 (ip), vehicle: saline with Tween-80
[10] = endpoint: mean survival time, dose: 25.0 mg/kg/injection, schedule: Q04DX002 (ip), vehicle: saline with Tween-80
[11] = endpoint: mean survival time, dose: 50.0 mg/kg/injection, schedule: Q04DX002 (ip), vehicle: saline with Tween-80
[12] = endpoint: mean survival time, dose: 100.0 mg/kg/injection, schedule: Q04DX003 (ip), vehicle: saline
[13] = endpoint: mean survival time, dose: 50.0 mg/kg/injection, schedule: Q01DX009 (ip), vehicle: saline with Tween-80
[14] = endpoint: mean survival time, dose: 100.0 mg/kg/injection, schedule: Q01DX009 (ip), vehicle: saline with Tween-80

`C=CCC12CCCCC1=CC(=O)CC2` (stereo not given) was tested, and the T/C [1] was 97 % of control, the T/C [2] was 100 % of control and the T/C [3] was 102 % of control.
In the case of `CC(=O)[O][Pb]([O]C(C)=O)([c]1ccccc1)[c]1ccccc1`, the T/C (endpoint: mean survival time, dose: 6.25 mg/kg/injection, schedule: Q01DX009 (ip), vehicle: Klucel (hydroxypropylcellulose) (HPC)) is reported as 89 % of control and 97 % of control, the T/C [4] is reported as 87 % of control and 100 % of control and the T/C [5] is reported as 96 % of control. For the same compound, the T/C [6] was 90 % of control and 95 % of control, the T/C [7] was 92 % of control and 97 % of control and the T/C (endpoint: mean survival time, dose: 200.0 mg/kg/injection, schedule: Q01DX009 (ip), vehicle: Klucel (hydroxypropylcellulose) (HPC)) was 96 % of control.
With `CNC(=O)OCc1c(COC(=O)NC)c(-c2ccc(Cl)c(Cl)c2)n2c1CCC2` the T/C [4] was 109 % of control, the T/C [5] was 110 % of control and the T/C [6] was 107 % of control. For the same compound, the T/C [7] was 105 % of control.
With `O=[N+]([O-])O.O=[N+]([O-])O.[NH-]C(c1ccccc1)C([NH-])c1ccccc1.[Pt+2]` (stereo not given) the T/C (endpoint: mean survival time, dose: 6.25 mg/kg/injection, schedule: Q04DX003 (ip), vehicle: saline) was 168 % of control, the T/C (endpoint: mean survival time, dose: 12.5 mg/kg/injection, schedule: Q04DX003 (ip), vehicle: saline with Tween-80) was 158 % of control and the T/C (endpoint: mean survival time, dose: 12.5 mg/kg/injection, schedule: Q04DX003 (ip), vehicle: saline) was 189 % of control. For the same compound, the T/C (endpoint: mean survival time, dose: 25.0 mg/kg/injection, schedule: Q04DX003 (ip), vehicle: saline with Tween-80) was 168 % of control and the T/C [8] was 195 % of control.
`O=C(O)c1cc2c([nH]1)=C(O)NN(O)C=2` was tested, and the T/C [9] was 101 % of control, the T/C [10] was 101 % of control and the T/C [11] was 111 % of control.
`COc1ccc(C(=O)OCC(=O)O)cc1` was tested, and the T/C (endpoint: mean survival time, dose: 50.0 mg/kg/injection, schedule: Q01DX001 (ip), vehicle: saline with Tween-80) was 102 % of control, the T/C (endpoint: mean survival time, dose: 100.0 mg/kg/injection, schedule: Q01DX001 (ip), vehicle: saline with Tween-80) was 98 % of control and the T/C (endpoint: mean survival time, dose: 200.0 mg/kg/injection, schedule: Q01DX001 (ip), vehicle: saline with Tween-80) was 102 % of control.
`O=C(c1ccccc1)C(Br)C(C(=O)O)c1ccccc1` (stereo not given) was tested, and the T/C [1] was 101 % of control, the T/C [2] was 95 % of control and the T/C [3] was 95 % of control.
With `OC1=C2CCCCCC2=[N+]2CCCCC2C1` (stereo not given) the T/C [1] was 95 % of control and the T/C [2] was 95 % of control.
For `CC[O+](CC)CC`, the T/C (endpoint: mean survival time, dose: 12.5 mg/kg/injection, schedule: Q04DX002 (ip), vehicle: saline) was 95 % of control, the T/C (endpoint: mean survival time, dose: 25.0 mg/kg/injection, schedule: Q04DX002 (ip), vehicle: saline) was 91 % of control and the T/C (endpoint: mean survival time, dose: 50.0 mg/kg/injection, schedule: Q04DX002 (ip), vehicle: saline) was 95 % of control.
`C1CCN(P(N2CCCCC2)N2CCCCC2)CC1` was tested, and the T/C (endpoint: mean survival time, dose: 100.0 mg/kg/injection, schedule: Q04DX002 (ip), vehicle: saline) was 92 % of control and the T/C (endpoint: mean survival time, dose: 200.0 mg/kg/injection, schedule: Q04DX002 (ip), vehicle: saline) was 92 % of control.
`O=C(O)CN(CCO)CCO` was tested, and the T/C [12] was 100 % of control, the T/C (endpoint: mean survival time, dose: 200.0 mg/kg/injection, schedule: Q04DX003 (ip), vehicle: saline) was 102 % of control and the T/C (endpoint: mean survival time, dose: 400.0 mg/kg/injection, schedule: Q04DX003 (ip), vehicle: saline) was 102 % of control.
`CCOC(=O)/C=C(/C)N` was tested, and the T/C (endpoint: mean survival time, dose: 100.0 mg/kg/injection, schedule: Q01DX001 (ip), vehicle: saline) was 101 % of control, the T/C (endpoint: mean survival time, dose: 200.0 mg/kg/injection, schedule: Q01DX001 (ip), vehicle: saline) was 101 % of control and the T/C (endpoint: mean survival time, dose: 400.0 mg/kg/injection, schedule: Q01DX001 (ip), vehicle: saline) was 107 % of control.
`O=C(O)c1ccccc1C(c1ccccc1)c1ccccc1` was tested, and the T/C [13] was 94 % of control and the T/C [14] was 94 % of control.
For `O=C(O)c1cc([N+](=O)[O-])cc([N+](=O)[O-])c1` (tested in a mixture with another compound), the T/C (endpoint: mean survival time, dose: 100.0 mg/kg/injection, schedule: Q04DX002 (ip), vehicle: saline with Tween-80) was 105 % of control and 114 % of control, the T/C (endpoint: mean survival time, dose: 200.0 mg/kg/injection, schedule: Q04DX002 (ip), vehicle: saline with Tween-80) was 101 % of control and 105 % of control and the T/C (endpoint: mean survival time, dose: 400.0 mg/kg/injection, schedule: Q04DX002 (ip), vehicle: saline with Tween-80) was 94 % of control.
`Cn1c(=O)[nH]c2c(-c3ccccc3)n[nH]c2c1=O` was tested, and the T/C (endpoint: median survival time, dose: 25.0 mg/kg/injection, schedule: Q04DX003 (ip), vehicle: saline with Tween-80) was 90 % of control, the T/C (endpoint: median survival time, dose: 100.0 mg/kg/injection, schedule: Q04DX003 (ip), vehicle: saline with Tween-80) was 90 % of control and the T/C (endpoint: median survival time, dose: 200.0 mg/kg/injection, schedule: Q04DX003 (ip), vehicle: saline with Tween-80) was 90 % of control.
For `CCOC(=O)c1nc(N)c2c(CC#N)nn(-c3ccccc3)c2n1`, the T/C (endpoint: mean survival time, dose: 12.5 mg/kg/injection, schedule: Q01DX005 (ip), vehicle: other) was 90 % of control, the T/C (endpoint: mean survival time, dose: 25.0 mg/kg/injection, schedule: Q01DX005 (ip), vehicle: other) was 93 % of control and the T/C (endpoint: mean survival time, dose: 50.0 mg/kg/injection, schedule: Q01DX005 (ip), vehicle: other) was 93 % of control. The T/C (endpoint: mean survival time, dose: 100.0 mg/kg/injection, schedule: Q01DX005 (ip), vehicle: other) was 87 % of control and the T/C (endpoint: mean survival time, dose: 200.0 mg/kg/injection, schedule: Q01DX005 (ip), vehicle: other) was 93 % of control.
For `CON(C)C(=O)N1c2ccccc2Sc2ccccc21`, the T/C [1] was 87 % of control and the T/C [2] was 87 % of control.
With `Cc1cc[n+](CCc2ccccc2)cc1` the T/C (endpoint: mean survival time, dose: 25.0 mg/kg/injection, schedule: Q01DX009 (ip), vehicle: saline with Tween-80) was 112 % of control, the T/C [8] was 95 % of control and the T/C [13] was 98 % of control. The T/C (endpoint: mean survival time, dose: 50.0 mg/kg/injection, schedule: Q04DX003 (ip), vehicle: saline) was 96 % of control and the T/C [12] was 94 % of control.
With `CCCOCCN=C(N)C(N)=NCCOCCC` the T/C [9] was 97 % of control, the T/C [10] was 89 % of control and the T/C [11] was 97 % of control.
In the case of `COc1cc2c(cc1OC)-c1c3c(cc4c1[C@@H](C2)N(C)CC4)OCO3`, the T/C (endpoint: median survival time, dose: 12.5 mg/kg/injection, schedule: Q01DX005 (ip), vehicle: distilled water + Tween-80) is reported as 96 % of control, the T/C (endpoint: median survival time, dose: 25.0 mg/kg/injection, schedule: Q01DX005 (ip), vehicle: distilled water + Tween-80) is reported as 104 % of control and the T/C (endpoint: median survival time, dose: 50.0 mg/kg/injection, schedule: Q01DX005 (ip), vehicle: distilled water + Tween-80) is reported as 87 % of control. The T/C (endpoint: median survival time, dose: 100.0 mg/kg/injection, schedule: Q01DX005 (ip), vehicle: distilled water + Tween-80) was 107 % of control.
With `CC1(C)CC(O)(Cc2ccccc2)C(C)(O)c2ccccc21` (stereo not given) the T/C [14] was 102 % of control, the T/C (endpoint: mean survival time, dose: 200.0 mg/kg/injection, schedule: Q01DX009 (ip), vehicle: saline with Tween-80) was 88 % of control and the T/C (endpoint: mean survival time, dose: 400.0 mg/kg/injection, schedule: Q01DX009 (ip), vehicle: saline with Tween-80) was 86 % of control.
